Measured values as given in PubChem BioAssay AID330 (DTP/NCI, 2004).
Several values for one entry are separate records, joined by “and”; a condition that tells them apart may be missing. Equal values may be shown once. Toxic doses and inconclusive results are not listed.

Tested on: P388 leukemia ip, CD2F1 mice, survival T/C
Assay: NCI In Vivo Anticancer Drug Screen. Data for tumor model P388 Leukemia (intraperitoneal) in CD2F1 (CDF1) mice
Conditions: endpoint: median survival time, higher = longer survival
Procedure, shortened: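 Mice carrying the transplanted tumor received test compound or vehicle. Survival was recorded in each group, and the value is the treated-group measurement divided by that of the vehicle-treated control group.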

## CO[C@H](C(=O)[C@@H](O)[C@@H](C)O)[C@@H]1Cc2cc3cc(OC4CC(OC5CC(O)C(O)C(C)O5)C(O)C(C)O4)c(C)c(O)c3c(O)c2C(=O)[C@H]1OC1CC(OC2CC(OC3CC(C)(O)C(O)C(C)O3)C(O)C(C)O2)C(O)C(C)O1 (stereo partly drawn)
dose: 0.01 mg/kg/injection, schedule: Q01DX009 (ip), vehicle: saline
  T/C: 100 % of control
dose: 0.02 mg/kg/injection, schedule: Q01DX009 (sc), vehicle: saline
  T/C: 100 % of control
dose: 0.03 mg/kg/injection, schedule: Q01DX001 (ip), vehicle: saline
  T/C: 100 % of control
dose: 0.03 mg/kg/injection, schedule: Q01DX001 (sc), vehicle: saline
  T/C: 104 % of control
dose: 0.03 mg/kg/injection, schedule: Q01DX005 (iv), vehicle: saline
  T/C: 100 % of control
dose: 0.03 mg/kg/injection, schedule: Q01DX009 (ip), vehicle: saline
  T/C: 100 % of control
dose: 0.03 mg/kg/injection, schedule: Q01DX009 (sc), vehicle: saline
  T/C: 104 % of control
dose: 0.05 mg/kg/injection, schedule: Q01DX009 (ip), vehicle: water
  T/C: 109 % of control and 110 % of control
dose: 0.05 mg/kg/injection, schedule: Q01DX010 (ip), vehicle: water
  T/C: 100 % of control
dose: 0.06 mg/kg/injection, schedule: Q01DX001 (ip), vehicle: saline
  T/C: 100 % of control
dose: 0.06 mg/kg/injection, schedule: Q01DX001 (sc), vehicle: saline
  T/C: 104 % of control
dose: 0.06 mg/kg/injection, schedule: Q01DX005 (iv), vehicle: saline
  T/C: 100 % of control
dose: 0.06 mg/kg/injection, schedule: Q01DX009 (ip), vehicle: saline
  T/C: 100 % of control
dose: 0.06 mg/kg/injection, schedule: Q01DX009 (sc), vehicle: saline
  T/C: 100 % of control
dose: 0.1 mg/kg/injection, schedule: Q01DX009 (ip), vehicle: water
  T/C: 115 % of control
dose: 0.1 mg/kg/injection, schedule: Q01DX015 (ip), vehicle: water
  T/C: 100 % of control and 109 % of control
dose: 0.12 mg/kg/injection, schedule: Q01DX009 (ip), vehicle: clinical formulation
  T/C: 103 % of control and 104 % of control and 108 % of control
dose: 0.12 mg/kg/injection, schedule: Q01DX009 (ip), vehicle: water
  T/C: 111 % of control and 114 % of control
dose: 0.13 mg/kg/injection, schedule: Q01DX001 (ip), vehicle: saline
  T/C: 100 % of control
dose: 0.13 mg/kg/injection, schedule: Q01DX001 (sc), vehicle: saline
  T/C: 100 % of control
dose: 0.13 mg/kg/injection, schedule: Q01DX005 (ip), vehicle: water
  T/C: 106 % of control and 107 % of control
dose: 0.13 mg/kg/injection, schedule: Q01DX005 (iv), vehicle: saline
  T/C: 100 % of control
dose: 0.13 mg/kg/injection, schedule: Q01DX009 (ip), vehicle: water
  T/C: 100 % of control
dose: 0.13 mg/kg/injection, schedule: Q01DX009 (sc), vehicle: saline
  T/C: 100 % of control
dose: 0.16 mg/kg/injection, schedule: Q01DX009 (ip), vehicle: saline
  T/C: 99 % of control
dose: 0.2 mg/kg/injection, schedule: Q01DX009 (ip), vehicle: water
  T/C: 118 % of control and 120 % of control
dose: 0.2 mg/kg/injection, schedule: Q01DX015 (ip), vehicle: water
  T/C: 109 % of control
dose: 0.22 mg/kg/injection, schedule: Q01DX005 (ip), vehicle: clinical formulation
  T/C: 108 % of control
dose: 0.25 mg/kg/injection, schedule: Q01DX001 (ip), vehicle: saline
  T/C: 100 % of control (2×) and 118 % of control
dose: 0.25 mg/kg/injection, schedule: Q01DX001 (sc), vehicle: saline
  T/C: 100 % of control
dose: 0.25 mg/kg/injection, schedule: Q01DX005 (ip), vehicle: water
  T/C: 108 % of control and 116 % of control
dose: 0.25 mg/kg/injection, schedule: Q01DX005 (iv), vehicle: saline
  T/C: 100 % of control
dose: 0.25 mg/kg/injection, schedule: Q01DX009 (ip), vehicle: clinical formulation
  T/C: 105 % of control and 109 % of control
dose: 0.25 mg/kg/injection, schedule: Q01DX009 (oral), vehicle: saline
  T/C: 109 % of control
dose: 0.25 mg/kg/injection, schedule: Q01DX009 (sc), vehicle: saline
  T/C: 100 % of control
dose: 0.25 mg/kg/injection, schedule: Q03HX008 (ip), vehicle: saline
  T/C: 108 % of control
dose: 0.25 mg/kg/injection, schedule: Q04DX024 (ip), vehicle: saline
  T/C: 116 % of control
dose: 0.25 mg/kg/injection, schedule: Q08DX002 (ip), vehicle: saline
  T/C: 118 % of control
dose: 0.27 mg/kg/injection, schedule: Q01DX009 (ip), vehicle: saline
  T/C: 99 % of control
dose: 0.3 mg/kg/injection, schedule: Q01DX015 (ip), vehicle: water
  T/C: 104 % of control and 118 % of control
dose: 0.36 mg/kg/injection, schedule: Q01DX005 (ip), vehicle: clinical formulation
  T/C: 105 % of control
dose: 0.4 mg/kg/injection, schedule: Q01DX015 (ip), vehicle: water
  T/C: 109 % of control
dose: 0.45 mg/kg/injection, schedule: Q01DX009 (ip), vehicle: saline
  T/C: 102 % of control
dose: 0.5 mg/kg/injection, schedule: Q01DX001 (ip), vehicle: saline
  T/C: 100 % of control (2×) and 113 % of control
dose: 0.5 mg/kg/injection, schedule: Q01DX001 (oral), vehicle: saline
  T/C: 100 % of control
dose: 0.5 mg/kg/injection, schedule: Q01DX001 (sc), vehicle: saline
  T/C: 100 % of control
dose: 0.5 mg/kg/injection, schedule: Q01DX005 (ip), vehicle: water
  T/C: 111 % of control and 114 % of control
dose: 0.5 mg/kg/injection, schedule: Q01DX005 (iv), vehicle: saline
  T/C: 100 % of control
dose: 0.5 mg/kg/injection, schedule: Q01DX009 (ip), vehicle: clinical formulation
  T/C: 116 % of control
dose: 0.5 mg/kg/injection, schedule: Q01DX009 (ip), vehicle: saline
  T/C: 113 % of control
dose: 0.5 mg/kg/injection, schedule: Q01DX009 (ip), vehicle: water
  T/C: 150 % of control
dose: 0.5 mg/kg/injection, schedule: Q01DX009 (oral), vehicle: saline
  T/C: 109 % of control
dose: 0.5 mg/kg/injection, schedule: Q01DX009 (sc), vehicle: saline
  T/C: 100 % of control
dose: 0.5 mg/kg/injection, schedule: Q01DX015 (ip), vehicle: water
  T/C: 118 % of control
dose: 0.5 mg/kg/injection, schedule: Q03HX008 (ip), vehicle: saline
  T/C: 108 % of control
dose: 0.6 mg/kg/injection, schedule: Q01DX005 (ip), vehicle: clinical formulation
  T/C: 113 % of control
dose: 0.65 mg/kg/injection, schedule: Q01DX009 (ip), vehicle: water
  T/C: 150 % of control
dose: 0.75 mg/kg/injection, schedule: Q01DX009 (ip), vehicle: saline
  T/C: 104 % of control
dose: 1.0 mg/kg/injection, schedule: Q01DX001 (ip), vehicle: saline
  T/C: 118 % of control
dose: 1.0 mg/kg/injection, schedule: Q01DX001 (oral), vehicle: saline
  T/C: 104 % of control
dose: 1.0 mg/kg/injection, schedule: Q01DX001 (sc), vehicle: saline
  T/C: 104 % of control
dose: 1.0 mg/kg/injection, schedule: Q01DX005 (ip), vehicle: water
  T/C: 118 % of control
dose: 1.0 mg/kg/injection, schedule: Q01DX009 (ip), vehicle: clinical formulation
  T/C: 104 % of control
dose: 1.0 mg/kg/injection, schedule: Q01DX009 (oral), vehicle: saline
  T/C: 109 % of control
dose: 1.0 mg/kg/injection, schedule: Q03HX008 (ip), vehicle: saline
  T/C: 116 % of control
dose: 1.0 mg/kg/injection, schedule: Q08DX002 (ip), vehicle: saline
  T/C: 109 % of control
dose: 2.0 mg/kg/injection, schedule: Q01DX001 (oral), vehicle: saline
  T/C: 100 % of control
dose: 2.0 mg/kg/injection, schedule: Q01DX009 (ip), vehicle: clinical formulation
  T/C: 116 % of control
dose: 2.0 mg/kg/injection, schedule: Q01DX009 (oral), vehicle: saline
  T/C: 109 % of control
dose: 4.0 mg/kg/injection, schedule: Q01DX001 (oral), vehicle: saline
  T/C: 100 % of control

## CN(C)CCN(C=O)CCN(C)C
dose: 50.0 mg/kg/injection, schedule: Q01DX005 (ip), vehicle: saline
  T/C: 95 % of control
dose: 100.0 mg/kg/injection, schedule: Q01DX005 (ip), vehicle: saline
  T/C: 88 % of control
dose: 200.0 mg/kg/injection, schedule: Q01DX005 (ip), vehicle: saline
  T/C: 101 % of control
